# Source: PMC9471048, “The signaling and selectivity of α‐adrenoceptor agonists for the human α2A, α2B and α2C‐adrenoceptors and comparison with human α1 and β‐adrenoceptors” (Pharmacology Research & Perspectives, 2022)
# Where two headings read alike, the source gives them in different places.
# How the values were obtained:
# [1] = tested on: parent CHO cells (no transfected receptor); parameters: method as in PMID 34355529; settings: non‐α‐mediated mechanism; cited from earlier work
# [2] = molecular target: T1, human α2A‐adrenoceptor (Homo sapiens, UniProt P08913)
# T1 sequence (P08913 1-465): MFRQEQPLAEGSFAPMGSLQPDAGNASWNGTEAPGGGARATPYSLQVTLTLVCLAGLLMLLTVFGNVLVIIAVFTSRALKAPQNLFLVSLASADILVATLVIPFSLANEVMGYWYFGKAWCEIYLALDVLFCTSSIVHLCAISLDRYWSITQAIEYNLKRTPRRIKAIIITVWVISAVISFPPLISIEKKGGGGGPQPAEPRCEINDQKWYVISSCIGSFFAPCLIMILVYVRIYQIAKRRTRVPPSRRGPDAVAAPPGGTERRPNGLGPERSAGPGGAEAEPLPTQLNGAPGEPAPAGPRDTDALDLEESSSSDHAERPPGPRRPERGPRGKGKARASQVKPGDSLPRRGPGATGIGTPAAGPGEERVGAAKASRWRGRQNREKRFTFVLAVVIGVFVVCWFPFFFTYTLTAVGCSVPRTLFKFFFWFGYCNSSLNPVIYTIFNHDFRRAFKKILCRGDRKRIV
# [3] = molecular target: T2, human α2C‐adrenoceptor (Homo sapiens, UniProt P18825); experiment: ERK1/2‐phosphorylation in CHO‐α2C cells; type: cell-based; parameters: expressed in transfected cells; host or cells: CHO-K1 with CRE-SPAP reporter
# T2 sequence (P18825 1-462): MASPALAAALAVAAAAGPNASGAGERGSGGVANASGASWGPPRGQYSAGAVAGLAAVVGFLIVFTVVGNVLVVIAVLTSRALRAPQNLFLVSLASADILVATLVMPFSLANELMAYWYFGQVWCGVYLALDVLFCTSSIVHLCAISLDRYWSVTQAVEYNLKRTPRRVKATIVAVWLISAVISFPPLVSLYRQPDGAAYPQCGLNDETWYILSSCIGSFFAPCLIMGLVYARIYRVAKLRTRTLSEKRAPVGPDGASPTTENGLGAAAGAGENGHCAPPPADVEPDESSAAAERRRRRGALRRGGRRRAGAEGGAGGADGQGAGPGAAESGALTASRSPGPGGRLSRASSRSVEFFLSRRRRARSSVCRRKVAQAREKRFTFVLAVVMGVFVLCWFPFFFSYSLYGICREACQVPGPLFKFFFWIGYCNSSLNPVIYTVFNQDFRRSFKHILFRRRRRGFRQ
# [4] = molecular target: T1, human α2A‐adrenoceptor; experiment: 3H‐rauwolscine whole cell binding in CHO‐α2A cells; parameters: expressed in transfected cells; host or cells: CHO-K1 with CRE-SPAP reporter; settings: for Kd: 3H‐rauwolscine whole cell binding
# [5] = molecular target: T2, human α2C‐adrenoceptor; experiment: 3H‐rauwolscine whole cell binding in CHO‐α2C cells; parameters: expressed in transfected cells; host or cells: CHO-K1 with CRE-SPAP reporter
# [6] = molecular target: T1, human α2A‐adrenoceptor; experiment: ERK1/2‐phosphorylation in CHO‐α2A cells; type: cell-based; parameters: expressed in transfected cells; host or cells: CHO-K1 with CRE-SPAP reporter
# [7] = molecular target: T2, human α2C‐adrenoceptor
structure (smiles),measurement,setting,value
CN1C[C@H](C(=O)N[C@]2(C)O[C@@]3(O)[C@@H]4CCCN4C(=O)[C@H](Cc4ccccc4)N3C2=O)C[C@@H]2c3cccc4[nH]cc(c34)C[C@H]21 [Dihydroergotamine],ERK1/2‐phosphorylation agonist response in parent cells,[1],stimulate ERK1/2‐phosphorylation agonist responses
NCC(O)c1ccc(O)cc1 (stereo not drawn) [Octopamine],IC50,[2],132 µM
same,"% inhibition, CRE‐SPAP (with forskolin)","[2]; CHO‐α2A (cell line 1), % inhibition from the 3 μM forskolin control, inhibition only",98.1 ± 5.7%
same,"Log EC50 (Gs), CRE‐SPAP (without forskolin)","[2]; CHO‐α2A (cell line 1), absence of forskolin",No response
same,"% 10 μM PDBu, ERK1/2‐phosphorylation","[3]; CHO‐α2C cells, maximum response compared to 10 μM PDBu, mean ± SEM",153.8 ± 17.9%
same,EC50,"[3]; CHO‐α2C cells, given as negative log EC50, mean ± SEM, read-out: Log EC50, ERK1/2‐phosphorylation (converted)",7.76 µM
same,Kd,"[4]; ^app: apparent KD, IC50 from extrapolated curve as not all specific binding was inhibited, read-out: Log KD (apparent), CHO‐α2A (converted)",417 µM
same,Kd,"[4]; CHO‐α2A, given as negative log KD, read-out: Log KD (binding) (converted)",417 µM
same,IC50,"[5]; 3H‐rauwolscine whole cell binding, no KD obtained, read-out: IC50 in binding, CHO‐α2C",~1000 µM
same,"% 10 μM PDBu, ERK1/2‐phosphorylation","[6]; CHO‐α2A, maximum response compared to 10 μM PDBu",124.1 ± 11.7%
same,EC50,"[6]; CHO‐α2A, read-out: Log EC50, ERK1/2‐phosphorylation (converted)",4.79 µM
same,IC50,[7],52.5 µM
same,"% inhibition, CRE‐SPAP (with forskolin)","[7]; CHO‐α2C cells, % inhibition from the 3 μM forskolin control, mean ± SEM",86.3 ± 5.2%
same,"Log EC50 (Gs), CRE‐SPAP (without forskolin)","[7]; CHO‐α2C cells, CRE‐SPAP production in the absence of forskolin",No response
Cc1cc(C(C)(C)C)c(O)c(C)c1CC1=NCCN1 [Oxymetazoline],ERK1/2‐phosphorylation agonist response in parent cells,[1],stimulate ERK1/2‐phosphorylation agonist responses
Nc1cc(Cl)c(N=C2NCCN2)c(Cl)c1 [Para‐amino‐clonidine],"% 3μM forskolin, CRE-SPAP (without forskolin)",[2],12.9 ± 4.1%
same,"% 3 μM forskolin, CRE‐SPAP (without forskolin)",[2],37.6 ± 4.0%
same,"% inhibition, CRE-SPAP (with forskolin)",[2],67.5 ± 4.8%
same,"Log EC50 (Gs), CRE-SPAP (with forskolin)",[2],-6.29 ± 0.32
same,"Log EC50 (Gs), CRE‐SPAP (with forskolin)",[2],−6.81 ± 0.15
same,"Log EC50 (Gs), CRE‐SPAP (without forskolin)",[2],−6.55 ± 0.10
same,"Log IC50 (Gi), CRE‐SPAP (with forskolin)",[2],−8.74 ± 0.12
same,"% 10 μM PDBu, ERK1/2‐phosphorylation",[3],132.6 ± 16.1%
same,"Log EC50, ERK1/2‐phosphorylation",[3],−8.68 ± 0.13
same,Log KD (binding),[4],−6.35
same,"Log KD, CHO‐α2A",[4],−6.35 ± 0.03
same,Log KD,[5],−6.31
same,"% 10 μM PDBu, ERK1/2‐phosphorylation",[6],141.9 ± 10.6%
same,"Log EC50, ERK1/2‐phosphorylation",[6],−9.58 ± 0.12
same,"% inhibition, CRE‐SPAP (with forskolin)",[7],82.3 ± 2.2%
same,"Log EC50 (Gs), CRE‐SPAP (without forskolin)",[7],No response
same,"Log IC50 (Gi), CRE‐SPAP (with forskolin)",[7],−8.09 ± 0.07
same,Log efficacy ratio (KD/IC50),[7],1.78
